Measured values as given in US6964974B2, “2,3-oxidosqualene-lanosterol cyclase inhibitors” (Hoffmann-La Roche Inc., priority 2000, dated 2005).

melting point: 73 to 74.8 °C
SMILES: CCCN(C)CCCCC1CCN(S(=O)(=O)c2ccc(C(F)(F)F)cc2)CC1 [Example 20.1, Methyl-propyl-{4-[1-(4-trifluoromethyl-benzenesulfonyl)-piperidin-4-yl]-butyl}-amine]
